From patent US20230143345A1, “PHARMACEUTICAL COMPOSITION FOR PREVENTION OR TREATMENT OF DISEASES CAUSED BY SARS-COV-2” (DONG WHA PHARM. CO., LTD., priority 2020, published 2023)
Read-outs that look alike come from different tables or passages of the source.

Assays:
[1] = tested on: SARS-CoV-2; assay: microbe, parasite or virus in culture; type: cell-based; conditions: for inhibition at 0.1 µM: concentration 0.10 uM; for inhibition at 0.2 µM: concentration 0.20 uM; for inhibition at 0.39 µM: concentration 0.39 uM; for inhibition at 1.56 µM: concentration 1.56 uM; for inhibition at 3.13 µM: concentration 3.13 uM; for inhibition at 6.25 µM: concentration 6.25 uM; for inhibition at 12.5 µM: concentration 12.5 uM; for inhibition at 25 µM: concentration 25 uM; for inhibition at 50 µM: concentration 50 uM
[2] = tested on: Vero cell lines; assay: Cell viability of Vero cells in the SARS-CoV-2 inhibition experiment (Example 2)
[3] = tested on: SARS-CoV-2; assay: microbe, parasite or virus in culture; type: cell-based; conditions: Severe acute respiratory syndrome coronavirus 2, read-out: SARS-CoV-2 virus 50% inhibitory ability (IC50 value); VERO cells infected at MOI 0.1 for one hour, then drug; culture fluid after 48 hours, qRT-PCR
[4] = Cell viability of VERO cells by WST-1 assay (Example 3); conditions: African green monkey
[5] = Severe acute respiratory syndrome coronavirus 2, Vero, 24 h, Vero cells, 24 h, read-out: SARS-CoV-2 virus inhibitory ability (%, average ± standard deviation)
[6] = Severe acute respiratory syndrome coronavirus 2, Vero cells, 24 h, read-out: SARS-CoV-2 virus inhibitory ability (%, average ± standard deviation)

SMILES: CCN(CC)CCCC(C)Nc1ccnc2cc(Cl)ccc12 (centres unmarked) [Chloroquine]
- inhibition at 0.1 µM [1, 5]: -2.83 ± 2.09%
- inhibition at 0.2 µM [1, 5]: -4.26 ± 0.03%
- inhibition at 0.39 µM [1, 5]: -2.86 ± 0.21%
- inhibition at 1.56 µM [1, 5]: 3.52 ± 6.42%
- inhibition at 3.13 µM [1, 5]: 61.1 ± 7.72%
- inhibition at 6.25 µM [1, 5]: 97.7 ± 0.16%
- inhibition at 12.5 µM [1, 5]: 99.31 ± 0.39%
- inhibition at 25 µM [1, 5]: 98.93 ± 0.07%
- inhibition at 50 µM [1, 5]: 99.4 ± 1%
- IC50 ([1]; Severe acute respiratory syndrome coronavirus 2, Vero, 24 h, read-out: SARS-CoV-2 virus 50% inhibitory ability (IC50 value), Vero cells dosed while being infected, 24 h, compounds): 8.78 µM
- Cell viability (%, average ± standard deviation) ([2]; concentration 0.10 uM): 83.10 ± 6.34%
- Cell viability (%, average ± standard deviation) ([2]; concentration 0.20 uM): 87.70 ± 0.37%
- Cell viability (%, average ± standard deviation) ([2]; concentration 0.39 uM): 83.14 ± 3.44%
- Cell viability (%, average ± standard deviation) ([2]; concentration 1.56 uM): 89.11 ± 4.21%
- Cell viability (%, average ± standard deviation) ([2]; concentration 3.13 uM): 97.41 ± 1.82%
- Cell viability (%, average ± standard deviation) ([2]; concentration 6.25 uM): 90.84 ± 3.72%
- Cell viability (%, average ± standard deviation) ([2]; concentration 12.5 uM): 83.63 ± 0.73%
- Cell viability (%, average ± standard deviation) ([2]; concentration 25 uM): 71.29 ± 6.06%
- Cell viability (%, average ± standard deviation) ([2]; concentration 50 uM): 59.69 ± 1.38%

SMILES: CCN(CCO)CCCC(C)Nc1ccnc2cc(Cl)ccc12 (centres unmarked) [Hydroxy-chloroquine, reference compound]
- IC50 [3]: 9.33 µM
- CC50 at 48 h [4]: 160 µM

SMILES: COc1cc2c(OC)c3c(c(-c4ccc5c(c4)OCO5)c2cc1OC)C(=O)OC3 [Justicidin-A, 9-benzo[1,3]dioxol-5-yl-4,6,7-trimethoxy-3H -naphtho[2,3-c]furan-1-one]
- IC50 ([1]; Severe acute respiratory syndrome coronavirus 2, Vero, 24 h, read-out: SARS-CoV-2 virus 50% inhibitory ability (IC50 value)): 0.159 µM
- inhibition at 0.1 µM [1, 6]: 25.7 ± 12.3%
- inhibition at 0.2 µM [1, 6]: 75.3 ± 4.37%
- inhibition at 0.39 µM [1, 6]: 95.2 ± 1.48%
- inhibition at […] ([1]; Severe acute respiratory syndrome coronavirus 2, concentration 0.78 uM, Vero cells, 24 h, read-out: SARS-CoV-2 virus inhibitory ability (%, average ± standard deviation)): 99 ± 1.58%
- inhibition at 1.56 µM [1, 6]: 99 ± 0.57%
- inhibition at 3.13 µM [1, 6]: 100 ± 0.36%
- inhibition at 6.25 µM [1, 6]: 99.6 ± 0.16%
- inhibition at 12.5 µM [1, 6]: 98.1 ± 1.47%
- inhibition at 25 µM [1, 6]: 95.3 ± 0.61%
- inhibition at 50 µM [1, 6]: 93.3 ± 1.69%
- SARS-CoV-2 inhibitory ability (in words) ([1]; Vero cells, comparison at IC50 values with Remdesivir, Lopinavir and Chloroquine): remarkably more excellent
- Cell viability (%, average ± standard deviation) ([2]; concentration 0.20 uM): 97.6 ± 0.61%
- Cell viability (%, average ± standard deviation) ([2]; concentration 0.39 uM): 101.3 ± 1.55%
- Cell viability (%, average ± standard deviation) ([2]; concentration 1.56 uM): 97.4 ± 0.09%
- Cell viability (%, average ± standard deviation) ([2]; concentration 3.13 uM): 98.4 ± 1.93%
- Cell viability (%, average ± standard deviation) ([2]; concentration 6.25 uM): 96.9 ± 3.33%
- Cell viability (%, average ± standard deviation) ([2]; concentration 12.5 uM): 96.5 ± 0.20%
- Cell viability (%, average ± standard deviation) ([2]; concentration 25 uM): 99.5 ± 1.81%
- Cell viability (%, average ± standard deviation) ([2]; concentration 50 uM): 98.0 ± 3.04%
